Measurements from ChEMBL document CHEMBL3612015, “Coumarins as anticancer agents: a review on synthetic strategies, mechanism of action and SAR studies” (Eur J Med Chem, 2015).

Experiments:
[1] = tested on: MCF7; assay: Cytotoxicity against human MCF7 cells assessed as growth inhibition at 10 uM after 48 hrs by MTT assay relative to control; type: functional; conditions: MCF7, 48 h, read-out: GI
[2] = tested on: MCF7; assay: Cytotoxicity against human MCF7 cells assessed as growth inhibition at 50 uM after 48 hrs by MTT assay relative to control; type: functional; conditions: MCF7, 48 h, read-out: GI
[3] = tested on: MCF7; assay: Cytotoxicity against human MCF7 cells assessed as growth inhibition at 100 uM after 48 hrs by MTT assay relative to control; type: functional; conditions: MCF7, 48 h, read-out: GI
[4] = tested on: MCF7; assay: Cytotoxicity against human MCF7 cells assessed as growth inhibition at 200 uM after 48 hrs by MTT assay relative to control; type: functional; conditions: MCF7, 48 h, read-out: GI
[5] = tested on: MCF7; assay: Cytotoxicity against human MCF7 cells after 48 hrs by MTT assay; type: functional, cell-based; conditions: MCF7, 48 h
[6] = tested on: MCF7; assay: Cytotoxicity against human MCF7 cells after 48 hrs by trypan blue assay; type: functional, cell-based; conditions: MCF7, 48 h
[7] = tested on: U-937; assay: Cytotoxicity against human U937 cells assessed as decrease in cell viability after 48 hrs; type: functional; conditions: U-937, 48 h
[8] = Cytotoxicity against human NCI60 cells assessed as cell growth after 48 hrs by SRB assay; type: functional
[9] = tested on: MDA-MB-231; assay: Cytotoxicity against human MDA-MB-231 cells assessed as cell growth after 48 hrs by SRB assay relative to control; type: functional
[10] = tested on: CAKI-1; assay: Cytotoxicity against human CAKI-1 cells assessed as cell growth after 48 hrs by SRB assay relative to control; type: functional
[11] = tested on: UO-31; assay: Cytotoxicity against human UO31 cells assessed as cell growth after 48 hrs by SRB assay relative to control; type: functional
[12] = tested on: NCI-H522; assay: Cytotoxicity against human NCI-H522 cells assessed as cell growth after 48 hrs by SRB assay relative to control; type: functional
[13] = target: Proto-oncogene tyrosine-protein kinase Src (Homo sapiens, UniProt P12931); assay: Inhibition of His6-tagged Src kinase domain (unknown origin) using AEEEIYGEFEAKKKK as substrate preincubated for 10 mins followed by substrate/ATP addition measured after 30 mins by fluorescence assay
Chain of Proto-oncogene tyrosine-protein kinase Src (P12931 2-536 limits assumed): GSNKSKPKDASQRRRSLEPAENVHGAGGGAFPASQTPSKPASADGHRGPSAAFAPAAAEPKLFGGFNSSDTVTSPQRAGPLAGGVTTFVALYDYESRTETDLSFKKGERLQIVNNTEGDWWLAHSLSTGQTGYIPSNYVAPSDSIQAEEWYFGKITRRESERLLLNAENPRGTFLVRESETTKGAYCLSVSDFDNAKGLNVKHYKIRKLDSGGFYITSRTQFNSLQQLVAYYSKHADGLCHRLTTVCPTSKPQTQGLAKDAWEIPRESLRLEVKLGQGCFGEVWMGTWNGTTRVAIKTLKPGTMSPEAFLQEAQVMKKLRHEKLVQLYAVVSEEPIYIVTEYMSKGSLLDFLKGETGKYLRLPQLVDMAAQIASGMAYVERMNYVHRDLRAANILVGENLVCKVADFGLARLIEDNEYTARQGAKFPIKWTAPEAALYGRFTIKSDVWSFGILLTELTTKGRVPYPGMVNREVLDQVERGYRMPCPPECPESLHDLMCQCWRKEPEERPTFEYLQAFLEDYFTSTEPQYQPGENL

[14] = tested on: Vero; assay: Cytotoxicity against African green monkey Vero cells; type: cell-based; conditions: Chlorocebus sabaeus
[15] = Cytotoxicity against human Hep2 cells; type: functional, cell-based; conditions: HEp-2
[16] = tested on: HeLa; assay: Cytotoxicity against human HeLa cells assessed as growth inhibition after 72 hrs by MTT assay; type: functional, cell-based
[17] = tested on: A549; assay: Cytotoxicity against human A549 cells after 48 hrs by crystal violet dye-binding assay; type: functional; conditions: A549, 48 h, read-out: LD50 (the source's name)
[18] = Cytotoxicity against rat CRL1548 cells after 48 hrs by crystal violet dye-binding assay; type: functional; conditions: CRL1548, 48 h, read-out: LD50 (the source's name)
[19] = Cytotoxicity against rat CRL1439 cells after 48 hrs by crystal violet dye-binding assay; type: cell-based; conditions: read-out: LD50
[20] = tested on: U-937; assay: Antiproliferative activity against human U937 cells after 3 days; type: functional, cell-based; conditions: U-937, 72 h
[21] = tested on: HepG2; assay: Cytotoxicity against human HepG2 cells assessed as growth inhibition after 72 hrs by MTT assay; type: functional, cell-based; conditions: HepG2, 72 h
[22] = tested on: SW-620; assay: Cytotoxicity against human SW620 cells assessed as growth inhibition after 72 hrs by MTT assay; type: functional, cell-based; conditions: SW-620, 72 h
[23] = tested on: MDA-MB-468; assay: Cytotoxicity against human MDA-MB-468 cells assessed as cell proliferation after 72 hrs by CellTiter 96 aqueous one solution cell proliferation assay relative to control; type: functional
[24] = tested on: MCF7; assay: Cytotoxicity against human MCF7 cells assessed as cell proliferation after 72 hrs by CellTiter 96 aqueous one solution cell proliferation assay relative to control; type: functional
[25] = tested on: SK-OV-3; assay: Cytotoxicity against human SKOV3 cells assessed as cell proliferation after 72 hrs by CellTiter 96 aqueous one solution cell proliferation assay relative to control; type: functional
[26] = tested on: A2780; assay: Cytotoxicity against human A2780 cells after 72 hrs by MTT assay; type: functional, cell-based; conditions: A2780, 72 h
[27] = tested on: HeLa; assay: Cytotoxicity against human HeLa cells after 72 hrs by MTT assay; type: functional, cell-based
[28] = tested on: KETR3; assay: Cytotoxicity against human Ketr3 cells after 72 hrs by MTT assay; type: functional, cell-based; conditions: KETR3, 72 h
[29] = tested on: MCF7; assay: Cytotoxicity against human MCF7 cells after 72 hrs by MTT assay; type: functional, cell-based; conditions: MCF7, 72 h
[30] = tested on: Paracentrotus lividus; assay: Antimitotic activity in sea urchin embryo assessed as cleavage alterations; type: functional
[31] = tested on: Paracentrotus lividus; assay: Antimitotic activity in sea urchin embryo assessed as cleavage arrest; type: functional
[32] = tested on: Paracentrotus lividus; assay: Antimitotic activity in sea urchin embryo assessed as embryo spinning; type: functional
[33] = Cytotoxicity against human NCI60 cells assessed as cell growth; type: functional

SMILES: C=CCOc1cc2oc(=O)cc(-c3nc4ccccc4s3)c2cc1OCC=C
- inhibition of growth at 10 µM [1]: 18.5%
- inhibition of growth at 50 µM [2]: 25.3%
- inhibition of growth at 100 µM [3]: 43.8%
- inhibition of growth at 200 µM [4]: 70.3%

SMILES: Cc1cc(C(=O)c2ccc(Cl)cc2Cl)ccc1OCC(=O)NNC(=O)c1cc2ccccc2oc1=O
- IC50 [5]: 10.2 µM
- IC50 [6]: 10.4 µM

SMILES: Cc1cc(=O)oc2cc(O)c(O)cc12 [4-METHYLESCULETIN]
- CC50 [7]: 76 µM

SMILES: O=c1oc2ccccc2cc1C1=NN(c2ccccc2)C(c2ccc(O)cc2)C1 (stereo unspecified)
- Activity [8]: 77.59%
- Activity [9]: -67.37%
- Activity [10]: -65.18%
- Activity [11]: -63.77%
- Activity [12]: -67.37%

SMILES: CCCCCCCCCCc1c(C)c2ccc(N(CC)CCCC(=O)O)cc2oc1=O
- IC50 [13]: 21.6 µM

SMILES: Cc1cc(=O)oc2ccc(OCNc3ccccc3O)cc12
- IC50 [14]: 22.9 µM
- IC50 [15]: 4.2 µM

SMILES: COc1ccccc1NCOc1ccc2oc(=O)cc(C)c2c1
- IC50 [14]: 21.3 µM
- IC50 [15]: 5.43 µM

SMILES: COc1ccc2c(Cn3cnc(C(N)=O)n3)cc(=O)oc2c1
- IC50 [16]: 35.5 µM

SMILES: Nc1ccc2c(C(F)(F)F)cc(=O)oc2c1
- IC50 [13]: 30.9 µM

SMILES: CC(=O)Oc1ccc(-c2c(-c3ccccc3)c3ccccc3oc2=O)cc1
- CC50 [17]: 89.3 µM
- CC50 [18]: > 100 µM
- CC50 at 48 h [19]: > 100 µM

SMILES: O=c1ccc2ccc(O)c(O)c2o1 [DAPHNETIN]
- IC50 [20]: 83.2 µM
- CC50 [7]: 120 µM

SMILES: Nc1nc(Cl)c2cnn(Cc3cc(=O)oc4cc(O)ccc34)c2n1
- IC50 [16]: 34 µM
- IC50 [21]: 25.6 µM
- IC50 [22]: 35.4 µM

SMILES: Cc1cc(C(=O)c2ccccc2Br)ccc1OCC(=O)NNC(=O)c1cc2ccccc2oc1=O
- IC50 [5]: 7.6 µM
- IC50 [6]: 7.7 µM

SMILES: CCN(CC)c1ccc2c(C)c(-c3ccc(OC(C)=O)cc3)c(=O)oc2c1
- CC50 [17]: 48.1 µM
- CC50 [18]: 45.1 µM
- CC50 at 48 h [19]: 49.1 µM

SMILES: CCCCCCCCCCc1c(C)c2cc3c(c(O)c2oc1=O)OC(C)(C)CC3
- Activity [23]: 36%
- Activity [24]: 57%
- Activity [25]: 35%

SMILES: CCCCCCc1c(C)c2ccc(N(CC)CCCC(=O)O)cc2oc1=O
- IC50 [13]: 36.5 µM

SMILES: CO[C@@H]1[C@@H](N)[C@@H](O)[C@H](Oc2ccc3cc(NC(=O)c4ccccc4)c(=O)oc3c2Cl)OC1(C)C
- IC50 [26]: 2.83 µM
- IC50 [27]: 5.35 µM
- IC50 [28]: 14.6 µM
- IC50 [29]: 13.8 µM

SMILES: Cc1cc(=O)oc2ccc(OCNc3ccc(F)cc3)cc12
- IC50 [14]: 30.7 µM
- IC50 [15]: 3.62 µM

SMILES: Cc1ccc(C(=O)c2cc(F)c(OCC(=O)NNC(=O)c3cc4ccccc4oc3=O)c(Cl)c2)cc1
- IC50 [5]: 9.3 µM
- IC50 [6]: 9.4 µM

SMILES: CO[C@@H]1[C@@H](N)[C@@H](O)[C@H](Oc2ccc3cc(NC(=O)c4ccccc4)c(=O)oc3c2C)OC1(C)C
- IC50 [26]: 7.52 µM
- IC50 [27]: 2.89 µM
- IC50 [28]: 2.14 µM
- IC50 [29]: 8.12 µM

SMILES: COc1ccc(-c2cc3cc(OC)c(OC)c(OC)c3oc2=O)cc1
- EC [30]: 0.2 µM
- EC [31]: 4 µM
- EC [32]: >5 µM
- GI50 [33]: 3.98 µM

SMILES: CCCCCCCCCCc1c(C)c2ccc(N)cc2oc1=O
- IC50 [13]: 73.5 µM

SMILES: CCc1c(C)c2cc3c(c(O)c2oc1=O)OC(C)(C)CC3
- Activity [23]: 85%
- Activity [24]: 45%
- Activity [25]: 30%
